The data set can be described thus: Equilibrium solubility in aqueous solutions containing different concentrations of Captisol. The format is physicochemical. Particulars: aqueous solution containing Captisol, 20 °C, thermodynamic from solid, free form equivalent. As for the experimental part:
Captisol® improves the solubility of the compound of Formula I in free base form, HCl salt and tosylate salt. Solubility of the above compounds was determined by equilibrating the powder with aqueous solutions containing different concentration of Captisol® at ambient temperature (20° C.).
The solutions were prepared in accordance with methods known to one of skill in the art.

For orientation: solubility means the concentration that dissolves in the medium under given conditions.

Each structure is given as a SMILES string. Structures can show the parent of a compound that is named as a salt. Where two headings read alike, the source gives them in different places.

`C[C@@H](OC[C@@]1(c2ccccc2)CC[C@]2(CCC(=O)N2)CN1)c1cc(C(F)(F)F)cc(C(F)(F)F)c1` [Compound I HCl salt]: the solubility amounted to 50 µg/mL (pH 5, aqueous buffer, Captisol 0 % w/v, pH 5 (NaOH adjusted), ambient temperature (20° C.), read-out: Solubility of Compound I HCl salt at pH 5 (pH adjusted by NaOH)); 3500 µg/mL (pH 5, aqueous with cosolvent or surfactant or cyclodextrin, Captisol 2 % w/v, pH 5 (NaOH adjusted), ambient temperature (20° C.), read-out: Solubility of Compound I HCl salt at pH 5 (pH adjusted by NaOH)); 4700 µg/mL (pH 5, aqueous with cosolvent or surfactant or cyclodextrin, Captisol 5 % w/v, pH 5 (NaOH adjusted), ambient temperature (20° C.), read-out: Solubility of Compound I HCl salt at pH 5 (pH adjusted by NaOH)); 10000 µg/mL (pH 5, aqueous with cosolvent or surfactant or cyclodextrin, Captisol 10 % w/v, pH 5 (NaOH adjusted), ambient temperature (20° C.), read-out: Solubility of Compound I HCl salt at pH 5 (pH adjusted by NaOH)).
For `C[C@@H](OC[C@@]1(c2ccccc2)CC[C@]2(CCC(=O)N2)CN1)c1cc(C(F)(F)F)cc(C(F)(F)F)c1` [Compound I free base], the solubility (pH 5.2, aqueous buffer, Captisol 0 % w/v, pH 5.2 citric acid buffered, 20° C., read-out: Solubility of Compound I free base at pH 5.2 (citric acid buffered)) amounted to 170 µg/mL; the solubility (pH 5.2, aqueous with cosolvent or surfactant or cyclodextrin, Captisol 2 % w/v, pH 5.2 citric acid buffered, 20° C., read-out: Solubility of Compound I free base at pH 5.2 (citric acid buffered)) came to 2200 µg/mL; the solubility (pH 5.2, aqueous with cosolvent or surfactant or cyclodextrin, Captisol 5 % w/v, pH 5.2 citric acid buffered, 20° C., read-out: Solubility of Compound I free base at pH 5.2 (citric acid buffered)) came out at 4600 µg/mL; the solubility (pH 5.2, aqueous with cosolvent or surfactant or cyclodextrin, Captisol 10 % w/v, pH 5.2 citric acid buffered, 20° C., read-out: Solubility of Compound I free base at pH 5.2 (citric acid buffered)) was 7200 µg/mL; the solubility (pH 5.2, aqueous with cosolvent or surfactant or cyclodextrin, Captisol 20 % w/v, pH 5.2 citric acid buffered, 20° C., read-out: Solubility of Compound I free base at pH 5.2 (citric acid buffered)) was 12000 µg/mL; the solubility (pH 7.2, aqueous buffer, Captisol 0 % w/v, pH 7.2 phosphate buffered, 20° C., read-out: Solubility of Compound I free base at pH 7.2 (phosphate buffered)) turned out to be 2 µg/mL. The solubility reads like this: (pH 7.2, aqueous with cosolvent or surfactant or cyclodextrin, Captisol 2 % w/v, pH 7.2 phosphate buffered, 20° C., read-out: Solubility of Compound I free base at pH 7.2 (phosphate buffered)) 50 µg/mL; (pH 7.2, aqueous with cosolvent or surfactant or cyclodextrin, Captisol 5 % w/v, pH 7.2 phosphate buffered, 20° C., read-out: Solubility of Compound I free base at pH 7.2 (phosphate buffered)) 150 µg/mL; (pH 7.2, aqueous with cosolvent or surfactant or cyclodextrin, Captisol 10 % w/v, pH 7.2 phosphate buffered, 20° C., read-out: Solubility of Compound I free base at pH 7.2 (phosphate buffered)) 290 µg/mL; (pH 7.2, aqueous with cosolvent or surfactant or cyclodextrin, Captisol 20 % w/v, pH 7.2 phosphate buffered, 20° C., read-out: Solubility of Compound I free base at pH 7.2 (phosphate buffered)) 610 µg/mL.
Regarding `C[C@@H](OC[C@@]1(c2ccccc2)CC[C@]2(CCC(=O)N2)CN1)c1cc(C(F)(F)F)cc(C(F)(F)F)c1` [Compound I Tosylate salt], the solubility (pH 5, aqueous buffer, Captisol 0 % w/v, pH 5 (NaOH adjusted), 20° C., read-out: Solubility of Compound I Tosylate salt at pH 5 (pH adjusted by NaOH)) was 150 µg/mL; the solubility (pH 5, aqueous with cosolvent or surfactant or cyclodextrin, Captisol 10 % w/v, pH 5 (NaOH adjusted), 20° C., read-out: Solubility of Compound I Tosylate salt at pH 5 (pH adjusted by NaOH)) was 940 µg/mL; the solubility (pH 5, aqueous with cosolvent or surfactant or cyclodextrin, Captisol 20 % w/v, pH 5 (NaOH adjusted), 20° C., read-out: Solubility of Compound I Tosylate salt at pH 5 (pH adjusted by NaOH)) turned out to be 1800 µg/mL; the solubility (pH 5, aqueous with cosolvent or surfactant or cyclodextrin, Captisol 40 % w/v, pH 5 (NaOH adjusted), 20° C., read-out: Solubility of Compound I Tosylate salt at pH 5 (pH adjusted by NaOH)) was found to be 4100 µg/mL.

The values are drawn from US20050153999A1, “Pharmaceutical compositions” (SCHERING CORPORATION, priority 2003, published 2005).
